Target: T1, recombinant human PDE5 (Homo sapiens, UniProt O76074)
T1 construct: host or cells: Saccharomyces cerevisiae protease-deficient strain BJ2-54 (ATCC 74465)
Assay: PDE5 inhibition (cGMP-PDE one-step assay)
Format: biochemical
Conditions: In vitro
Procedure: The compounds of structural formula (I) were tested for an ability to inhibit PDE5. The ability of a compound to inhibit PDE5 activity is related to the IC50 value for the compound, i.e., the concentration of inhibitor required for 50% inhibition of enzyme activity. The IC50 value for compounds of structural formula (I) were determined using recombinant human PDE5.
Phosphodiesterase activity of the preparations was determined as follows. PDE assays utilizing a charcoal separation technique were performed essentially as described in Loughney et al. (1996). In this assay, PDE activity converts [32P]cAMP or [32P]cGMP to the corresponding [32P]5′-AMP or [32P]5′-GMP in proportion to the amount of PDE activity present. The [32P]5′-AMP or [32P]5′-GMP then was quantitatively converted to free [32P]phosphate and unlabeled adenosine or guanosine by the action of snake venom 5′-nucleotidase. […] The assay was performed at 30° C. in a 100 μL reaction mixture containing (final concentrations) 40 mM iris HCl (pH 8.0), 1 μM ZnSO4, 5 mM MgCl2, and 0.1 mg/mL bovine serum albumin (BSA). PDE enzyme was present in quantities that yield <30% total hydrolysis of substrate (linear assay conditions). The assay was initiated by addition of substrate ([…] [^32P]cAMP or cGMP), and the mixture was incubated for 12 minutes. Seventy-five (75) […] of Crotalus atrox venom then was added, and the incubation was continued for 3 minutes (15 minutes total). The reaction was stopped by addition of 200 μL of activated charcoal (25 mg/mL suspension in 0.1 M NaH2PO4, pH 4). After centrifugation. (750×g for 3 minutes) to sediment the charcoal, a sample of the supernatant was taken for radioactivity determination in a scintillation counter and the PDE activity was calculated.
cGMP-PDE activity of compounds of the present invention was measured using a one-step assay adapted from Wells et al., Biochim. Biophys. Acta, 384, 430 (1975). The reaction medium contained 50 mM Tris-HCl, pH 7.5, 5 mM magnesium acetate, 250 μg/ml 5′-Nucleotidase, 1 mM EGTA, and 0.15 μM 8-[H^3]-cGMP. Unless otherwise indicated, the enzyme used was a human recombinant PDE5 (ICOS Corp., Bothell, Wash.).
Compounds of the invention were dissolved in DMSO finally present at 2% in the assay.

SMILES	IC50
CN1CC(=O)N2[C@H](c3ccc4c(c3)OCO4)c3[nH]c4ccccc4c3C[C@]2(C)C1=O [Example 1, (6R,12aR)-6-Benzo[1,3]dioxol-5-yl-2,12a-dimethyl-2,3,6,7,12,12a-hexahydro-pyrazino-[1,2′:1,6]pyrido[3,4-b]indole-1,4-dione]	46 nM
CN1CC(=O)N2[C@H](Cc3c([nH]c4ccccc34)[C@]2(C)c2ccc3c(c2)OCO3)C1=O [Example 2b, (+−, trans)-6-Benzo[1,3]dioxol-5-yl-2,6-dimethyl-2,3,6,7,12,12a-hexahydropyrazino-[1′,2′:1,6]pyrido[3,4-b]indole-1,4-dione]	260 nM
CN1CC(=O)N2[C@H](Cc3c([nH]c4ccccc34)[C@@]2(C)c2ccc3c(c2)OCO3)C1=O [Example 2a, (+−, Cis)-6-Benzo[1,3]dioxol-5-yl-2,6-dimethyl-2,3,6,7,12,12a-hexahydropyrazino-[1′,2′:1,6]pyrido[3,4-b]indole-1,4-dione]	685 nM
CN1CC(=O)N2[C@H](c3ccc4c(c3)OCO4)c3[nH]c4ccccc4c3[C@@H](c3ccccc3)[C@@H]2C1=O (racemic) [Example 3, (+−, 6,12a cis-12,12a-trans)-6-Benzo-(1,3)-dioxol-5-yl-methyl-12-phenyl-2,3,6,7,12,12a-hexahydro-pyrazino[1′,2′:1,6]pyrido[3,4-b]indole-1,4-dione]	47 nM
CN1CC(=O)N2[C@H](Cc3c([nH]c4ccccc34)[C@@]2(O)c2ccc3c(c2)OCO3)C1=O [Example 5, (6S,12aR)-6-Benzo[1,3]dioxol-5-yl-6-hydroxy-2-methyl-2,3,6,7,12,12a-hexahydropyrzino[1′,2′:1,6]pyrido[3,4-b]indole-1,4-dione]	142 nM

Second part, the compound after the results:

IC50	SMILES
63 nM	C[C@@H]1c2c([nH]c3ccccc23)[C@H](c2ccc3c(c2)OCO3)N2C(=O)CN(C)C(=O)[C@@H]12 (racemic) [Example 4b, (+−, trans, trans methyl)-6-Benzo[1,3]dioxol-5-yl-2,12-dimethyl-2,3,6,7,12,12a-hexahydropyrazino[1′,2′:1,6]pyrido[3,4-b]indole-1,3-dione]
4 nM	C[C@@H]1c2c([nH]c3ccccc23)[C@@H](c2ccc3c(c2)OCO3)N2C(=O)CN(C)C(=O)[C@@H]12 (racemic) [Example 4a, (+−, cis, trans methyl)-6-Benzo[1,3]dioxol-5-yl-2,12-dimethyl-2,3,6,7,12,12a-hexahydropyrazino[1′,2′:1,6]pyrido[3,4-b]indole-1,3-dione]

From patent US7105506B2, “Tetracyclic compounds as PDE5-inhibitors” (Lilly Icos LLC, priority 2001, dated 2006)
